Results published in patent publication US11572590B2, “Methods for evaluating tumor cell spheroids using 3D microfluidic cell culture device” (Dana-Farber Cancer Institute, Inc., priority 2017, dated 2023).
Like-named read-outs stand apart in the source and are kept apart here.

Experiments:
Experiment in all cases: SelectScreen Kinase Profiling, single point inhibition and IC50 for off-target kinases
Assay type in all cases: biochemical
off-target kinases [1] = target: T1, off-target kinases (Homo sapiens, UniProt O15146); settings: MUSK, ZLYTE, ATP Km app
T1 sequence (O15146 24-869): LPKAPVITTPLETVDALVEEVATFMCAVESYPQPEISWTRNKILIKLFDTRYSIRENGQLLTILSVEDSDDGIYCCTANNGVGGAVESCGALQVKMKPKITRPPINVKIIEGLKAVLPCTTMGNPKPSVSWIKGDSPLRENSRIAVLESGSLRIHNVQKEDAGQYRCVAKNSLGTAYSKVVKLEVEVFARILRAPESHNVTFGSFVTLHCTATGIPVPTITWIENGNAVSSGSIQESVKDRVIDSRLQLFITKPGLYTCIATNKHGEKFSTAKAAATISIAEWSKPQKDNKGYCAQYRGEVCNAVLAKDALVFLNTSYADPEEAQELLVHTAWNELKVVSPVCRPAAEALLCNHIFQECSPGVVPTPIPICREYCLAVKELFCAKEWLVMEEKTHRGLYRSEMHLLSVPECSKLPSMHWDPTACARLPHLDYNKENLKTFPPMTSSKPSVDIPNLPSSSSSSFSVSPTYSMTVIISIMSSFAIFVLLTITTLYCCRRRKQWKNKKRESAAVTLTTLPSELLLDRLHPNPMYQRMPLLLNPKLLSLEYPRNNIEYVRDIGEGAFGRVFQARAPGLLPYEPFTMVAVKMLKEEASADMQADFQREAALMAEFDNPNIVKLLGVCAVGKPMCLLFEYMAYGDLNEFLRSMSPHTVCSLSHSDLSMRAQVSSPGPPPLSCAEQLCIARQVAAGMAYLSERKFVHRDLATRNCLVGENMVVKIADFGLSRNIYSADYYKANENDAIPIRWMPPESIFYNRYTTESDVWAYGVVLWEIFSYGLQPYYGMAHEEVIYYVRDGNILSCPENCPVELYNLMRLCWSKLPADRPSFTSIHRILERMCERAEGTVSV

off-target kinases [2] = target: off-target kinases (Homo sapiens, UniProt P06241)
Sequence of off-target kinases (Homo sapiens, UniProt P06241) (P06241 whole entry): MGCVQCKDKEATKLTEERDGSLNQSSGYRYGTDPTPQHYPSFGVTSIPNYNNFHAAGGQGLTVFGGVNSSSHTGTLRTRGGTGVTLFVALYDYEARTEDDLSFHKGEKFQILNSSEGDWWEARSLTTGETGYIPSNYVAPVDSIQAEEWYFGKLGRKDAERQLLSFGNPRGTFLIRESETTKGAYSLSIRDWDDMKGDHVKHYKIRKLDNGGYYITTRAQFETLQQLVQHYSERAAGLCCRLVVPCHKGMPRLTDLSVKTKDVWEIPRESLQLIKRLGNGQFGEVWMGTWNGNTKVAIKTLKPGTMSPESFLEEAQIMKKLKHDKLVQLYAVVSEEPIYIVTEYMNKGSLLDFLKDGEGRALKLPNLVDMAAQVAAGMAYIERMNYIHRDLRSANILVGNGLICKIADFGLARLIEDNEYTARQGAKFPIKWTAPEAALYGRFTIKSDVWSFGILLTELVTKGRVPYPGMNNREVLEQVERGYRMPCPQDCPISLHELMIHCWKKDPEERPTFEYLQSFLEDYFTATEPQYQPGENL

off-target kinases [3] = target: off-target kinases (Homo sapiens, UniProt P07949, M918T); settings: RET M918T, mutant y, LanthaScreen Binding
Sequence of off-target kinases (Homo sapiens, UniProt P07949, M918T) (P07949 29-1114 M918T): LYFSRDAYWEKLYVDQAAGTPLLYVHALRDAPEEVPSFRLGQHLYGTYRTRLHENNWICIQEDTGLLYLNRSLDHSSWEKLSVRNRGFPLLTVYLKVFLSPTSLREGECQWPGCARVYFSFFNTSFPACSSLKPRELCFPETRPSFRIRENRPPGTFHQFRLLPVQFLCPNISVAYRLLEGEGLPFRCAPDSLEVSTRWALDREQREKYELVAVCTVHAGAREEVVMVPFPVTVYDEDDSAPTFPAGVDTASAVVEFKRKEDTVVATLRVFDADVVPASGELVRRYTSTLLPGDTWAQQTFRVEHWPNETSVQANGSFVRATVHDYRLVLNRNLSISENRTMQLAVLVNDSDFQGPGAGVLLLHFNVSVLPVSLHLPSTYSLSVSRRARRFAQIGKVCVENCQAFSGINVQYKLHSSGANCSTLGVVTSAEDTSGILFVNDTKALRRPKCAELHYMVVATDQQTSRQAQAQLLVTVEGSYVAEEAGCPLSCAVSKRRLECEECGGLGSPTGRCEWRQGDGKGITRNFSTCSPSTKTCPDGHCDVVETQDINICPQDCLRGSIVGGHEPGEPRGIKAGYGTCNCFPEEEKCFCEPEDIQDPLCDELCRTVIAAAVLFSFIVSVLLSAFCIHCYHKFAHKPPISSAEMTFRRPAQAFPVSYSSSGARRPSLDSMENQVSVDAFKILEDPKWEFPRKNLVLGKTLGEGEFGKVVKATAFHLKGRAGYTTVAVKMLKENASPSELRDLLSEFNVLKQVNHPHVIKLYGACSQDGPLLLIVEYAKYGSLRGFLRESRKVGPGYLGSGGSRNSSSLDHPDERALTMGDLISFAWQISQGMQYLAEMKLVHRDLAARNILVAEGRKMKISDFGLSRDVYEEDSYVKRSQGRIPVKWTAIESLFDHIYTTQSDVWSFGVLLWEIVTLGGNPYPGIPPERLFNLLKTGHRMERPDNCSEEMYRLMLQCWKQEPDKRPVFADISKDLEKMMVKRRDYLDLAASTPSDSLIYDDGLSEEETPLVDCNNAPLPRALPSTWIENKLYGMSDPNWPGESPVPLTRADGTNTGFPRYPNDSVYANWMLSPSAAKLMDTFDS

off-target kinases [4] = target: off-target kinases (Homo sapiens, UniProt P35968); settings: KDR (VEGFR2), ATP Km app, ZLYTE
off-target kinases [5] = target: off-target kinases (Homo sapiens, UniProt Q8N5S9); settings: CAMKK1 (CAMKKA), LanthaScreen Binding
Sequence of off-target kinases (Homo sapiens, UniProt Q8N5S9) (Q8N5S9 whole entry): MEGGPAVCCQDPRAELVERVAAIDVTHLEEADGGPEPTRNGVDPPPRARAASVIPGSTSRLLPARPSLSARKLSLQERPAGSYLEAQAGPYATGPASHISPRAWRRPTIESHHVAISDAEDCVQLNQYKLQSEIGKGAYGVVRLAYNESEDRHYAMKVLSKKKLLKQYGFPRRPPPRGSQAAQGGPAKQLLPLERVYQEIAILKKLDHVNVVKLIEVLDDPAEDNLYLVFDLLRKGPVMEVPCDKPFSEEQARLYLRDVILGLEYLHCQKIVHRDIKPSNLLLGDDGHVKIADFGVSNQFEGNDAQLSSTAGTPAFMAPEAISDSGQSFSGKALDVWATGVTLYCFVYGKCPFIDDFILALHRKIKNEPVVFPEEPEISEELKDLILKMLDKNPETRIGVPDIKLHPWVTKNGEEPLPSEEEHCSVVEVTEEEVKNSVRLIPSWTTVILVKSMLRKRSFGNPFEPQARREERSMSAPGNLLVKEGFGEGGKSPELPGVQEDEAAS

off-target kinases [6] = target: off-target kinases (Homo sapiens, UniProt Q9Y3S1); settings: WNK2, LanthaScreen Binding
Sequence of off-target kinases (Homo sapiens, UniProt Q9Y3S1) (Q9Y3S1 whole entry): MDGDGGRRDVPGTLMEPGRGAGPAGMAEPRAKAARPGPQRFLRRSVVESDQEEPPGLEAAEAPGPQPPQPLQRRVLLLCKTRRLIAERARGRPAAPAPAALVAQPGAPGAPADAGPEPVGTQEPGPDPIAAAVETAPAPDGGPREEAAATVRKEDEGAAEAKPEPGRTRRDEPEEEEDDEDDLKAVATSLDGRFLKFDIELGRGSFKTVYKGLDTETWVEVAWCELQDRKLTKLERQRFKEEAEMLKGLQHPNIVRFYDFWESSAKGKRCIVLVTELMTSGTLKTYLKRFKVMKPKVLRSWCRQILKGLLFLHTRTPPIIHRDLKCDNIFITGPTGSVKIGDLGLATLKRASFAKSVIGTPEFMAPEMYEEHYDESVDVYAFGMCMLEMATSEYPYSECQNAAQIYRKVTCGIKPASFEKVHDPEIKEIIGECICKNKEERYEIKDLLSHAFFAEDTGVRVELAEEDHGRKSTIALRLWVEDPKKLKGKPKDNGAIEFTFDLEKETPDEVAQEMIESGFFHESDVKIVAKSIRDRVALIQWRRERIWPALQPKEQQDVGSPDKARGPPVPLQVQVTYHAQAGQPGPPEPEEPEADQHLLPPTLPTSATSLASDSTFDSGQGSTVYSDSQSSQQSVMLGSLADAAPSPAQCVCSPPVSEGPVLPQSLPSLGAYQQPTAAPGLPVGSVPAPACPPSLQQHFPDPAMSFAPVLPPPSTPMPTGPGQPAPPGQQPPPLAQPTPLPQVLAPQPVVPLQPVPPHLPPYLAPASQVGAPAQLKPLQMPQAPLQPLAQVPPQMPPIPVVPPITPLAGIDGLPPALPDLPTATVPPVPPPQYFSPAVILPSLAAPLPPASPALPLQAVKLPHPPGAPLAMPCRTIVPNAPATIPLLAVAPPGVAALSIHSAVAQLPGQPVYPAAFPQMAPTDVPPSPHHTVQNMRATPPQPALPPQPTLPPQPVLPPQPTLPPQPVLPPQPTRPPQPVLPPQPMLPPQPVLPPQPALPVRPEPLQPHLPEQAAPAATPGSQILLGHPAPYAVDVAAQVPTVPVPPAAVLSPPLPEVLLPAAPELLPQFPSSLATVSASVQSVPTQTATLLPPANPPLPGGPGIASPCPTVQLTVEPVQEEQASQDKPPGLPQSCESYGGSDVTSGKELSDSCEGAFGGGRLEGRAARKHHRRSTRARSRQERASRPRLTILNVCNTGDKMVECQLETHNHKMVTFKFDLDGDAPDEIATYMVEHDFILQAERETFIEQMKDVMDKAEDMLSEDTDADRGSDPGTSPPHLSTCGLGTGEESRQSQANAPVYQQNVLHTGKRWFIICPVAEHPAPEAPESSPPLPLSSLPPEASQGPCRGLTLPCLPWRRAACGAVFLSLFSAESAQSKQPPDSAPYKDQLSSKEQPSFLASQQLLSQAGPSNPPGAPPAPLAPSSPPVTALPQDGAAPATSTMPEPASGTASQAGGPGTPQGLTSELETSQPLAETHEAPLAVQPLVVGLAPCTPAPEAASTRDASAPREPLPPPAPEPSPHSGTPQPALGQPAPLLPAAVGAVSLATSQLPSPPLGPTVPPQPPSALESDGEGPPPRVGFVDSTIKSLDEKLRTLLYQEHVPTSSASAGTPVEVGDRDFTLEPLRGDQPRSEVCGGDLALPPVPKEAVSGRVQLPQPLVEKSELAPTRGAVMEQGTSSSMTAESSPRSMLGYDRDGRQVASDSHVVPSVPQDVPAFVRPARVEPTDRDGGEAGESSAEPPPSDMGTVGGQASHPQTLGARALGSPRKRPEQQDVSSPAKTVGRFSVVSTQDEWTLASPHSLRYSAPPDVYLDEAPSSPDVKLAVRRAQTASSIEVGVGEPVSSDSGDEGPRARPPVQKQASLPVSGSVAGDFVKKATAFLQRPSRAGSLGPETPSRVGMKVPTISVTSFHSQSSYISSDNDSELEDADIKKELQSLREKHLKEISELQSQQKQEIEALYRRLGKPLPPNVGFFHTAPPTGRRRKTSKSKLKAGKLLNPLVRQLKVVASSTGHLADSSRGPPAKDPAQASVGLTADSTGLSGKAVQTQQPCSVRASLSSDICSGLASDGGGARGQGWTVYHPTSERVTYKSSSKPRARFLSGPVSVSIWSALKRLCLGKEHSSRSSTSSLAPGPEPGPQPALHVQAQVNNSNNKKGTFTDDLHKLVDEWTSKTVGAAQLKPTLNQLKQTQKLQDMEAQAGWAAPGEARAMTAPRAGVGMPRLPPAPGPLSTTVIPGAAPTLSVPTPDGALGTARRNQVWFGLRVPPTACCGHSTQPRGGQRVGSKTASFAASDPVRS

N#Cc1cc(-c2ncnc(Nc3ccc(N4CCN(C5COC5)CC4)cc3)n2)ccc1OC1CCOCC1 [Compound 1, 5-(4-((4-(4-(oxetan-3-yl)piperazin-1-yl)phenyl)amino)-1,3,5-triazin-2-yl)-2-((tetrahydro-2H-pyran-4-yl)oxy)benzonitrile]
inhibition (off-target kinases [1]; read-out: % Inhibition 1): 15%
inhibition (off-target kinases [1]; read-out: % Inhibition 2): 8%
inhibition (off-target kinases [1]; read-out: % Inhibition Avg): 12%
inhibition (off-target kinases [2]; FYN A, LanthaScreen Binding, read-out: % Inhibition Avg): 18%
inhibition (off-target kinases [2]; FYN, ATP Km app, ZLYTE, read-out: % Inhibition 1): 85%
inhibition (off-target kinases [2]; FYN, ATP Km app, ZLYTE, read-out: % Inhibition 2): 85%
inhibition (off-target kinases [2]; FYN, ATP Km app, ZLYTE, read-out: % Inhibition Avg): 85%
inhibition (off-target kinases [3]; read-out: % Inhibition 1): 10%
inhibition (off-target kinases [3]; read-out: % Inhibition 2): 13%
inhibition (off-target kinases [3]; read-out: % Inhibition Avg): 12%
inhibition (off-target kinases [4]; read-out: % Inhibition 1): 51%
inhibition (off-target kinases [4]; read-out: % Inhibition 2): 53%
inhibition (off-target kinases [4]; read-out: % Inhibition Avg): 52%
inhibition (off-target kinases [5]; read-out: % Inhibition 1): 2%
inhibition (off-target kinases [5]; read-out: % Inhibition 2): -1%
inhibition (off-target kinases [5]; read-out: % Inhibition Avg): 0%
inhibition (off-target kinases [6]; read-out: % Inhibition 1): -4%
inhibition (off-target kinases [6]; read-out: % Inhibition 2): 5%
inhibition (off-target kinases [6]; read-out: % Inhibition Avg): 1%
